From patent US5413915A (priority 1991, dated 1995)
Marks after values point to notes of the source that are not given here.

Assays:
[1] = in vivo; cited from earlier work
Salmonella typhimurium = settings: cited from earlier work
[2] = in vivo; cited from earlier work; remark: listed apart in the source
rat liver microsomes = format: biochemical; design: unit not given here

## BrCCBr [1,2-Dibromoethane]
[1]
  Teratogen Activity: -
Salmonella typhimurium
  Mutagenicity: +
[2]
  Tumorigen Activity: +

## O=C(O)CNCP(=O)(O)O [Glyphosate (ind.), Glyphosate]
[1]
  Teratogen Activity: -
Salmonella typhimurium
  Mutagenicity: -
Rat liver microsomes
  Detector Response, threshold dose: 0.3
[2]
  Tumorigen Activity: -

## [Mn+2] [Manganese(II)]
[1]
  Teratogen Activity: +
Salmonella typhimurium
  Mutagenicity: -
Rat liver microsomes
  Detector Response, threshold dose: 5
[2]
  Tumorigen Activity: +

## CCOP(=S)(OCC)Oc1cc(C)nc(C(C)C)n1 [Diazinon (ind.), Diazinon]
[1]
  Teratogen Activity: +
Salmonella typhimurium
  Mutagenicity: -
Rat liver microsomes
  Detector Response, threshold dose: 1-100
[2]
  Tumorigen Activity: -

## CCN(CC)N=O [Diethylnitrosamine]
[1]
  Teratogen Activity: +
Salmonella typhimurium
  Mutagenicity: +
Rat liver microsomes
  Detector Response, threshold dose: 0.1-1
[2]
  Tumorigen Activity: +

## Cyanacrylate [Cyanacrylate (ind.)]
[1]
  Teratogen Activity: -
Salmonella typhimurium
  Mutagenicity: -
[2]
  Tumorigen Activity: -

## OC[C@@H](O)[C@@H](O)[C@H](O)[C@H](O)CO [Mannitol]
[1]
  Teratogen Activity: -
Salmonella typhimurium
  Mutagenicity: -
[2]
  Tumorigen Activity: -

## O=[O+][O-] [Ozone]
[1]
  Teratogen Activity: +
Salmonella typhimurium
  Mutagenicity: -
[2]
  Tumorigen Activity: +^b

## O=C(O)COc1ccc(Cl)cc1Cl [2,4-D]
[1]
  Teratogen Activity: +
Salmonella typhimurium
  Mutagenicity: -
[2]
  Tumorigen Activity, assignment based on IARC reports: +
  Tumorigen Activity, assignment based on NCI/NTP carcinogenesis bioassay results: -

## CCNc1nc(Cl)nc(NCC)n1 [Simazine (ind.), Simazine]
[1]
  Teratogen Activity: +
Salmonella typhimurium
  Mutagenicity: -
[2]
  Tumorigen Activity: +^e

## CCOP(=S)(NC(C)C)Oc1ccccc1C(=O)OC(C)C (centres unmarked) [Isofenphos (ind.), Isofenphos]
[1]
  Teratogen Activity: -
Salmonella typhimurium
  Mutagenicity: -
[2]
  Tumorigen Activity: -

## O=C(O)CN(CCN(CC(=O)O)CC(=O)O)CC(=O)O [EDTA]
[1]
  Teratogen Activity: +
Salmonella typhimurium
  Mutagenicity: -
[2]
  Tumorigen Activity: -

## CN(C)C=O [Dimethylformamide]
[1]
  Teratogen Activity: -
Salmonella typhimurium
  Mutagenicity: +
[2]
  Tumorigen Activity: -

## O=c1cc(-c2ccccc2)oc2ccc3ccccc3c12 [5,6-Naphthoflavone]
[1]
  Teratogen Activity: -
Salmonella typhimurium
  Mutagenicity: -
[2]
  Tumorigen Activity: -

## NC(N)=O [Urea]
[1]
  Teratogen Activity: -
Salmonella typhimurium
  Mutagenicity: -
[2]
  Tumorigen Activity: +

## O=S(=O)(O)CCCN1CCOCC1 [MOPS Buffer, morpholinopropanesulfonic acid]
[1]
  Teratogen Activity: -?
Salmonella typhimurium
  Mutagenicity: -?
[2]
  Tumorigen Activity: -?

## Lecithin [Lecithin, fresh]
[1]
  Teratogen Activity: -
Salmonella typhimurium
  Mutagenicity: -
[2]
  Tumorigen Activity: -

## CC(C)C(C(=O)OC(C#N)c1cccc(Oc2ccccc2)c1)c1ccc(Cl)cc1 (centres unmarked) [Sumicidin (ind.), Sumicidin]
[1]
  Teratogen Activity: -?
Rat liver microsomes
  Detector Response, threshold dose: 0.5
[2]
  Tumorigen Activity: -?

## CNC(=O)Oc1cccc2c1OC(C)(C)C2 [Carbofuran (ind.), Carbofuran]
[1]
  Teratogen Activity: -
Salmonella typhimurium
  Mutagenicity: +
[2]
  Tumorigen Activity: -

## O=S(=O)(F)Cc1ccccc1 [Phenylmethylsulfonyl fluoride]
[1]
  Teratogen Activity: -
Salmonella typhimurium
  Mutagenicity: -
[2]
  Tumorigen Activity: -

## COc1c(Cl)ccc(Cl)c1C(=O)O [Dicamba (ind.), Dicamba]
[1]
  Teratogen Activity: -
Salmonella typhimurium
  Mutagenicity: +
[2]
  Tumorigen Activity: -

## Triton X-100
[1]
  Teratogen Activity: -
Salmonella typhimurium
  Mutagenicity: -
[2]
  Tumorigen Activity: -

## C[n+]1ccc(-c2cc[n+](C)cc2)cc1 [Methyl viologen]
[1]
  Teratogen Activity: +
Salmonella typhimurium
  Mutagenicity: +
[2]
  Tumorigen Activity: +

## Oc1ccc(-c2ccccc2)cc1 [p-Hydroxybiphenyl]
[1]
  Teratogen Activity: -?
Salmonella typhimurium
  Mutagenicity: -
[2]
  Tumorigen Activity: +

## C[S+](C)[O-] [Dimethylsulfoxide]
[1]
  Teratogen Activity: +
Salmonella typhimurium
  Mutagenicity: -
[2]
  Tumorigen Activity: -

## CCC1(CC)C(=O)NC(=O)NC1=O [Barbital]
[1]
  Teratogen Activity: -
Salmonella typhimurium
  Mutagenicity: -
[2]
  Tumorigen Activity: -

## CO [Methanol]
[1]
  Teratogen Activity: +
Salmonella typhimurium
  Mutagenicity: -
[2]
  Tumorigen Activity: -

## ClC(Cl)Cl [CHCl3]
[1]
  Teratogen Activity: +
Salmonella typhimurium
  Mutagenicity: +
[2]
  Tumorigen Activity: +

## NC(=O)CI [Iodoacetamide]
[1]
  Teratogen Activity: -
Rat liver microsomes
  Detector Response, threshold dose: 0.1
[2]
  Tumorigen Activity: +

## [Cl-].[Na+] [NaCl]
[1]
  Teratogen Activity: -
Salmonella typhimurium
  Mutagenicity: -
[2]
  Tumorigen Activity: -

## O=C(O)CC(O)(CC(=O)O)C(=O)O [Citrate]
[1]
  Teratogen Activity: -
[2]
  Tumorigen Activity: -

## NC(CO)(CO)CO [TRIS Buffer, tris(hydroxymethyl-)aminomethane]
[1]
  Teratogen Activity: -
Salmonella typhimurium
  Mutagenicity: -
[2]
  Tumorigen Activity: -

## CCOC(C)=O [Ethyl Acetate]
[1]
  Teratogen Activity: -
Salmonella typhimurium
  Mutagenicity: -
[2]
  Tumorigen Activity: -

## CCNc1nc(Cl)nc(NC(C)(C)C#N)n1 [Cyanazine (ind.), Cyanazine]
[1]
  Teratogen Activity: -
Salmonella typhimurium
  Mutagenicity: +
[2]
  Tumorigen Activity: -

## C=CC(N)=O [Acrylamide]
[1]
  Teratogen Activity: -
Rat liver microsomes
  Detector Response, threshold dose: 0.2
[2]
  Tumorigen Activity: +

## CCN(CC)CC [Triethylamine]
[1]
  Teratogen Activity: -
Salmonella typhimurium
  Mutagenicity: -
[2]
  Tumorigen Activity: -

## Magnesium(II)
[1]
  Teratogen Activity: -
Salmonella typhimurium
  Mutagenicity: -
[2]
  Tumorigen Activity: -

## Cc1cc(-c2cc(C)c(N)c(C)c2)cc(C)c1N [Tetramethylbenzidine]
[1]
  Teratogen Activity: -
Salmonella typhimurium
  Mutagenicity: -
[2]
  Tumorigen Activity: -

## Cc1ccccc1 [Toluene]
[1]
  Teratogen Activity: +
[2]
  Tumorigen Activity: -

## CCc1cccc(CC)c1N(COC)C(=O)CCl [Alachlor (ind.), Alachlor]
[1]
  Teratogen Activity: -
Salmonella typhimurium
  Mutagenicity: -
[2]
  Tumorigen Activity: -

## CNC(=O)Oc1cc(C)c(N(C)C)c(C)c1 [Mexacarbate (ind.), Mexacarbate]
[1]
  Teratogen Activity: -
Salmonella typhimurium
  Mutagenicity: -
[2]
  Tumorigen Activity: +^b
  Tumorigen Activity, assignment based on NCI/NTP carcinogenesis bioassay results: -

## CCCCO [1-Butanol]
[1]
  Teratogen Activity: -
Salmonella typhimurium
  Mutagenicity: -
[2]
  Tumorigen Activity: -

## S=C=S [CS2]
[1]
  Teratogen Activity: +
Salmonella typhimurium
  Mutagenicity: +
[2]
  Tumorigen Activity: -

## O=C1O[C@H]([C@@H](O)CO)C(O)=C1O [Ascorbate]
[1]
  Teratogen Activity: +
Salmonella typhimurium
  Mutagenicity: +
[2]
  Carcinogenic Status: Negative
  Tumorigen Activity: -

## Oc1ccc2ccccc2c1 [2-Naphthol]
[1]
  Teratogen Activity: -
Rat liver microsomes
  Detector Response, threshold dose: 20
[2]
  Tumorigen Activity: -

## c1cnc2c(c1)ccc1cccnc12 [o-Phenanthroline]
[1]
  Teratogen Activity: -
Salmonella typhimurium
  Mutagenicity: -
[2]
  Tumorigen Activity: -

## OCC(O)CO [Glycerol]
[1]
  Teratogen Activity: -
[2]
  Tumorigen Activity: -

## Cn1c(=O)c2[nH]cnc2n(C)c1=O [Theophylline]
[1]
  Teratogen Activity: +
[2]
  Tumorigen Activity: -

## CC(C)O [2-Propanol]
[1]
  Teratogen Activity: -
Salmonella typhimurium
  Mutagenicity: -
[2]
  Tumorigen Activity: -
  Tumorigen Activity, assignment based on IARC reports: +

## CCCCCC [n-Hexane]
[1]
  Teratogen Activity: -
Salmonella typhimurium
  Mutagenicity: -
[2]
  Tumorigen Activity: -

## Lecithin [Lecithin, oxidized]
[1]
  Teratogen Activity: -
Salmonella typhimurium
  Mutagenicity: +
[2]
  Tumorigen Activity: +

## C[n+]1ccc(-c2cc[n+](C)cc2)cc1 [Paraquat (ind.), Paraquat]
[1]
  Teratogen Activity: +
Salmonella typhimurium
  Mutagenicity: +
[2]
  Tumorigen Activity: -

## CNC(=O)Oc1cccc2ccccc12 [Carbaryl (ind.), Carbaryl]
[1]
  Teratogen Activity: +
[2]
  Tumorigen Activity: +

## CCOP(=S)(OCC)Oc1nc(Cl)n(C(C)C)n1 [Isozofos (ind.), Isozofos]
[1]
  Teratogen Activity: -?
Salmonella typhimurium
  Mutagenicity: -?
[2]
  Tumorigen Activity: -?

## CCCCCCCCCCCCOS(=O)(=O)[O-].[Na+] [Sodium laurylsulfate]
[1]
  Teratogen Activity: -
Salmonella typhimurium
  Mutagenicity: -
[2]
  Tumorigen Activity: -

## O=S(=O)(c1ccc(Cl)cc1)c1cc(Cl)c(Cl)cc1Cl [Tetradifon (ind.), Tetradifon]
[1]
  Teratogen Activity: -
Salmonella typhimurium
  Mutagenicity: -
[2]
  Tumorigen Activity: -

## CCc1cccc(C)c1N(C(=O)CCl)C(C)COC (centres unmarked) [Metolachlor (ind.), Metolachlor]
[1]
  Teratogen Activity: -
Salmonella typhimurium
  Mutagenicity: +
[2]
  Tumorigen Activity: -

## ClC1=C(Cl)[C@]2(Cl)[C@@H]3[C@@H]4C[C@@H]([C@H]5O[C@@H]45)[C@@H]3[C@@]1(Cl)C2(Cl)Cl [Dieldrin]
[1]
  Teratogen Activity: +
Salmonella typhimurium
  Mutagenicity: +
[2]
  Tumorigen Activity: +^e

## c1ccc2ccccc2c1 [Naphthalene]
[1]
  Teratogen Activity: +
[2]
  Tumorigen Activity: +/-

## CNC(=O)ON=C(C)SC [Methomyl (ind.), Methomyl]
[1]
  Teratogen Activity: -
Salmonella typhimurium
  Mutagenicity: -
[2]
  Tumorigen Activity: -

## CNC(=O)Oc1ccccc1OC(C)C [Propoxur (ind.), Propoxur]
[1]
  Teratogen Activity: -
Salmonella typhimurium
  Mutagenicity: -
[2]
  Tumorigen Activity: -

## ClC(Cl)=C(Cl)Cl [Tetrachloroethylene]
[1]
  Teratogen Activity: +
Salmonella typhimurium
  Mutagenicity: +
[2]
  Tumorigen Activity: +

## O=C(O)COc1ccccc1 [Phenoxyacetate]
[1]
  Teratogen Activity: -
Salmonella typhimurium
  Mutagenicity: -
[2]
  Tumorigen Activity: -

## CCO [Ethanol]
[1]
  Teratogen Activity: +
Salmonella typhimurium
  Mutagenicity: -
[2]
  Tumorigen Activity: -

## O=C(O)CN(CC(=O)O)CC(=O)O [Nitrilotriacetate]
[1]
  Teratogen Activity: +
Salmonella typhimurium
  Mutagenicity: -
[2]
  Tumorigen Activity: +
